Tested on: single combed White Leghorn hens
Experiment: Induction of molt by LHRH receptor ligand
Type: in vivo
Conditions: all treated groups, 25 micrograms/day
Procedure: After the two week pre-molt adjustment period, the hens were randomly assigned to each of eight different groups. These treatment groups were as follows: (1) control, (2) forced molt, (3) chemical molt-injected, (4) vehicle control-injected, (5) chemical molt-microcapsules A, (6) vehicle control-microcapsules A, (7) chemical molt-microcapsules B, and (8) vehicle control-microcapsules B.
The hens then received a seven day pre-molt treatment of a 24 hour light, zero hour dark photoperiod. On day 14 of the experiment the photoperiod was then reduced to natural day length for all treatments. Feed was made available ad libitum for all groups except the forced molt group. The forced molt group was deprived of food, but not of water, until a 30% body weight loss occurred (10 days of fasting).
[D-Trp^6 ]LHRH was used as the LHRH receptor ligand for the chemical molt groups. The "chemical molt-injected" group received intramuscular (breast) injections of 25 micrograms/day of [D-Trp^6 ]LHRH for 10 consecutive days beginning on day 14. Alternate pectoral (breast) areas were injected each day. […]
Microcapsules were suspended in disposable syringes in vehicle containing 2% carboxymethyl cellulose and 1% "TWEEN 20" in water. After thoroughly mixing the suspension, aliquots calculated to have released a dose of 25 micrograms/day for 15 consecutive days were injected into the breast muscle of the hens. […]

For [D-Trp^6 ]LHRH [D-Trp^6 --LHRH], the induction of molt was “induced to molt”.
